# Entries after “also recorded” stand apart in the source; their conditions may differ.
# What was measured:
# [1] = tested on: Il-1b-stimulated MIO-M1 cells; assay: Co-incubation with selective receptor antagonists in Il-1b-stimulated MIO-M1 cells; type: cell-based, human; details: co-incubation with FA + IL-1β, compared to Il1b and FA alone
# Description: FIG. 3 Contribution of glucocorticoid and mineralocorticoid receptor signalling to the anti-inflammatory effect of FA in vitro.
# IL-1β and TNF-α were administered to MIO-M1 cells to initiate an inflammatory response in order to test the anti-inflammatory properties of the selected corticosteroids. MIO-M1 cells were grown to a cell density of 50,000 cells per well in a 24 well plate using growth media and foetal bovine serum as described (Section 2.1.1). MIO-M1 cells were challenged with either 1 ng/μl of IL-1β or TNF-α (R&D Systems, MN, USA). Experimental wells were treated with either 1 μg/μl FA, TA or Dexamethasone. Twelve hours post addition, growth medium was removed from each well and replaced with 860 μl of TRIzol (Thermo Fisher Scientific, MA, USA), agitated approximately 20 times and then placed in a clean 1.5 ml Eppendorf tube to extract ribonucleic acid (RNA).
# Following purification of RNA, cDNA was synthesized using the Bioline Tetro kit (Bioline, Australia) as per the manufacturer's instructions. Quantitative Real Time Polymerase Chain Reaction (QRT-PCR) was undertaken to profile gene expression changes in animal and cell culture samples. TaqMan hydrolysis probes (Applied Biosystems, USA) and Gene Expression Master Mix (Applied Biosystems, USA) were used. A clear 384 well plate (Applied Biosystems, USA) was used with each biological sample plated in duplicate. A reaction mixture per sample was set up and included 0.5 μl cDNA, 4 μl Rnase Free Water, 5 μl Gene Expression Master Mix and 0.5 μl Taqman Primer Probe (Thermo Fisher Scientific), as listed in Table 2.5. The amplification of each sample was undertaken using a QuantStudio 12K Flex QRT-PCR machine (Applied Biosystems, USA). GAPDH was used as the reference gene using the comparative cycle threshold (Ct) method (ΔΔCt), as it is known not to change expression following retinal photo-oxidative damage. Data was analysed using the QuantStudio 12K Flex Software (Applied Biosystems, USA).
# MIO-M1 cells = assay: MTT assay, cell viability of MIO-M1 cells; type: cell-based, human
# Text: (§1) The immortalised retinal cells used were as follows: MIO-M1 cells (Muller cell-derived; Müller 1 Moorefields, Institute of Ophthalmology, Dr A. Limb, Institute of Ophthalmology, University College, UK); ARPE19 (RPE-derived; ATCC CRL-2302, American Tissue Culture Collection, VA, USA); and 661W cells (photoreceptor-like derived; kindly gifted by Dr Muayyad R. Al-Ubaidi, Department of Cell Biology, University of Oklahoma Health Sciences Centre, Oklahoma City, OK, USA). Cells were authenticated and validated from Cell Bank Australia.
# (§2) The immortalised retinal cell lines MIO-M1, 661W and ARPE19 were used to undertake the MTT assay to assess cell metabolic activity, based on the cell's availability of NAPDH. Treatments included exposure to one of FA (10-0.01 μg/μl, provided by Professor Ben Boyd, Monash University, Australia), TA (10-0.01 μg/p, Honeywell, USA) and Dexamethasone (10-0.0001 μg/μl, Sigma-Aldrich, MO, USA). All corticosteroids used in vitro were dissolved in 20% dimethyl sulfoxide (DMSO) (Sigma-Aldrich, MO, USA) and ultrapure endotoxin 0.1M PBS (Thermo Fisher Scientific, MA, USA). At the 12-hour time point following addition of the corticosteroid, 10p of MTT reagent (Roche, Switzerland) was added to each well. To protect against light, plates were wrapped in foil and stored in the dark at 37° C. for 4 hours at 5.0% CO2. Cells were monitored using a bright field Zeiss Axiovert 200 inverted microscope (Carl Zeiss Meditec, Dublin, CA. USA) for formation of insoluble purple formazan precipitate crystals in viable cells. Subsequently 100p of MTT solubilisation solution was added and once again incubated in darkness at 37° C., 5.0% CO2 for 24 hours. Quantification of the MTT assay was performed by measuring the absorbance at 570 nm using Tecan Infinite® 200 PRO (Tecan, Mannedorf, Switzerland).
# ARPE19 cells = assay: MTT assay, cell viability of ARPE19 cells; type: cell-based, human
# Text: as §1, §2
# 661W cells = assay: MTT assay, cell viability of 661W cells; type: cell-based, human
# Text: as §1, §2
# [2] = tested on: C57BL/6J mice, photo-oxidative damage (PD); assay: Photo-oxidative damage (PD) model of retinal degeneration, intravitreal injection; type: in vivo, mouse
# Text: All experiments conducted were in accordance with the ARVO Statement for Use of Animals in Ophthalmic and Vision Research, and with approval from the ANU Animal Experimentation Ethics Committee (AEEC, protocol #A2014/56). C57BL/6J mice aged 60 post-natal days were used in this study. Animals were born, reared and held under dim light conditions (5 lux) prior to photo-oxidative damage.
# In vivo cross-sectional and fundus images of the mouse retina were acquired using Optical Coherence Tomography (OCT).
# Intravitreal injections were performed on C57BL/6J mice aged 60 post-natal days. Treatments included exposure to FA or TA dissolved in Suspension (comprised of 0.5% w/v carboxymethyl cellulose and 0.4% v/v Tween 80). The final concentration of drug in the vitreous chamber is estimated to be as 1 mg/ml.
# Age-matched C57BL/6J mice (60 post-natal days) were exposed to continuous 100K lux white LED light for 5 days with access to food and water ad libitum. During this time, 1% atropine sulphate (Minims 1% atropine sulphate eye drops; Bausch and Lomb, USA) was administered to both eyes twice daily to dilate the pupils. Animals were subsequently euthanised with carbon dioxide (CO2).
# Electroretinography (ERG) was used to assess the retinal function response of rodents to full-field flash stimuli under scotopic conditions. Dim-reared control and photo-oxidative damaged animals were used, using known methods.
# Animals were dark-adapted overnight before the commencement of ERG experiments. Animals were anaesthetised as previously described, and all retinal recordings were undertaken in a dark room with minimal red light source.
# Terminal deoxynucleotidyl transferase (Tdt) dUTP nick end labelling (TUNEL) is an established technique used to detect apoptotic and necrotic cells.
# The retina was evenly divided into 8 quadrants. Each quadrant was viewed using a confocal microscope (LSM 5, Zeiss, Germany) and TUNEL^+ and IBA1^+ cells were identified and counted. Data were graphed and analysed using Prism 6 software (GraphPad Software, CA, USA).
# [3] = 10 ug/uL, compared to DMSO-only group
# [4] = 10-0.01 μg/μl, 12 h, compared to DMSO-only group
smiles,measurement,setting,value
C[C@]12CC[C@@H]3c4ccc(O)cc4C[C@@H](CCCCCCCCC[S+]([O-])CCCC(F)(F)C(F)(F)F)[C@H]3[C@@H]1CC[C@@H]2O (some centres unmarked) [ICI182780],"effect of receptor antagonist on FA-mediated suppression of Ccl2, Il-6, and Il-8",[1],did not alter
N#Cc1ccc([C@H]2CCCC[C@H]2O)cc1C(F)(F)F [PF998425],"effect of receptor antagonist on FA-mediated suppression of Ccl2, Il-6, and Il-8",[1],did not alter
"CC#C[C@]1(O)CC[C@H]2[C@@H]3CCC4=CC(=O)CCC4=C3[C@@H](c3ccc(N(C)C)cc3)C[C@@]21C [RU486, Mifepristone]","effect of receptor antagonist on FA-mediated suppression of Ccl2, Il-6, and Il-8",[1],negated; also recorded: completely abrogate
CCC[C@@H]1CC2=CC(=O)CC[C@]2(C)[C@H]2CC[C@@]3(C)[C@@H](CC[C@@]3(O)CCC(=O)[O-])[C@H]12.[K+] [RU28318],"effect of receptor antagonist on FA-mediated suppression of Ccl2, Il-6, and Il-8",[1],did not significantly alter
"CC1(C)O[C@@H]2C[C@H]3[C@@H]4CCC5=CC(=O)C=C[C@]5(C)[C@@]4(F)[C@@H](O)C[C@]3(C)[C@]2(C(=O)CO)O1 [TA, triamcinolone acetonide]",viability of MIO-M1 cells at 1 μg/μl,MIO-M1 cells; 1 μg/μl,does not significantly alter cell viability
same,viability of MIO-M1 cells at the highest concentration,MIO-M1 cells; [3],slight reduction
same,viability of MIO-M1 cells (MTT assay),MIO-M1 cells; [4],do not induce toxicity; also recorded: did not have significant effect
same,viability of ARPE19 cells at 1 μg/μl,ARPE19 cells; 1 μg/μl,does not significantly alter cell viability
same,viability of ARPE-19 cells (MTT assay),ARPE19 cells; [4],do not induce toxicity; also recorded: did not have significant effect
same,viability of 661W cells at 1 μg/μl,661W cells; 1 μg/μl,does not significantly alter cell viability
same,viability of 661W cells at the highest concentration,661W cells; [3],slight reduction
same,viability of 661W cells (MTT assay),661W cells; [4],do not induce toxicity; also recorded: did not have significant effect
same,a-wave and b-wave ERG responses,"[2]; 5 days PD, intravitreal, scotopic, versus controls",indistinguishable from PD controls/untreated animals
same,photoreceptor survival in PD,"[2]; intravitreal injection, mice",no significant effect

# From patent US20250387410A1, “TREATMENT OF ANTI-VEGF REFRACTORY OPHTHALMIC RETINAL EYE CONDITIONS” (Eye Co Pty Ltd., priority 2022, published 2025)
